Experimental data taken from patent US20080096924A1, “Amorphous Composition” (ONO PHARMACEUTICAL CO., LTD., priority 2004, published 2008).
Converted amounts (≈) assume the structure as drawn.

How the values were obtained:
N-type calcium channel = N-type calcium channel (Homo sapiens, UniProt Q00975); conditions: refer to Patent Document 1; cited from earlier work
[1] = Bioavailability on oral administration; conditions: in vivo, orally administered, read-out: bioavailability (BA)
Solubility in water = format: physicochemical; conditions: crystals of compound (I) vs spray-dried amorphous powder with HPMCAS
CYP3A4 = CYP3A4 (Homo sapiens, UniProt P08684); assay: Metabolism by metabolic enzyme
Chain of CYP3A4 (P08684 whole entry): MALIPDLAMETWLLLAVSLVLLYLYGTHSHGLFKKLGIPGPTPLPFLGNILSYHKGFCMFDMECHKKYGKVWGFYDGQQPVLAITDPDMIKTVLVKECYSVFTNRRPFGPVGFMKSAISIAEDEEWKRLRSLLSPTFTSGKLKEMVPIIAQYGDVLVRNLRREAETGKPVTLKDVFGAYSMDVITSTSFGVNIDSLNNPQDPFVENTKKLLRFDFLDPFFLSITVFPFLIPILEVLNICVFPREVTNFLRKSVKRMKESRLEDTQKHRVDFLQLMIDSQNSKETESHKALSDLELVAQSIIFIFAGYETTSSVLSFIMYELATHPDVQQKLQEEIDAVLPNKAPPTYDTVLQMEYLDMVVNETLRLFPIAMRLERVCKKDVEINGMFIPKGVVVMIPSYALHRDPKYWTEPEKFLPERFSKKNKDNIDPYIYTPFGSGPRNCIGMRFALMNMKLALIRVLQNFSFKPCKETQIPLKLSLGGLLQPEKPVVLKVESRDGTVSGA

Chain of N-type calcium channel (Q00975 whole entry): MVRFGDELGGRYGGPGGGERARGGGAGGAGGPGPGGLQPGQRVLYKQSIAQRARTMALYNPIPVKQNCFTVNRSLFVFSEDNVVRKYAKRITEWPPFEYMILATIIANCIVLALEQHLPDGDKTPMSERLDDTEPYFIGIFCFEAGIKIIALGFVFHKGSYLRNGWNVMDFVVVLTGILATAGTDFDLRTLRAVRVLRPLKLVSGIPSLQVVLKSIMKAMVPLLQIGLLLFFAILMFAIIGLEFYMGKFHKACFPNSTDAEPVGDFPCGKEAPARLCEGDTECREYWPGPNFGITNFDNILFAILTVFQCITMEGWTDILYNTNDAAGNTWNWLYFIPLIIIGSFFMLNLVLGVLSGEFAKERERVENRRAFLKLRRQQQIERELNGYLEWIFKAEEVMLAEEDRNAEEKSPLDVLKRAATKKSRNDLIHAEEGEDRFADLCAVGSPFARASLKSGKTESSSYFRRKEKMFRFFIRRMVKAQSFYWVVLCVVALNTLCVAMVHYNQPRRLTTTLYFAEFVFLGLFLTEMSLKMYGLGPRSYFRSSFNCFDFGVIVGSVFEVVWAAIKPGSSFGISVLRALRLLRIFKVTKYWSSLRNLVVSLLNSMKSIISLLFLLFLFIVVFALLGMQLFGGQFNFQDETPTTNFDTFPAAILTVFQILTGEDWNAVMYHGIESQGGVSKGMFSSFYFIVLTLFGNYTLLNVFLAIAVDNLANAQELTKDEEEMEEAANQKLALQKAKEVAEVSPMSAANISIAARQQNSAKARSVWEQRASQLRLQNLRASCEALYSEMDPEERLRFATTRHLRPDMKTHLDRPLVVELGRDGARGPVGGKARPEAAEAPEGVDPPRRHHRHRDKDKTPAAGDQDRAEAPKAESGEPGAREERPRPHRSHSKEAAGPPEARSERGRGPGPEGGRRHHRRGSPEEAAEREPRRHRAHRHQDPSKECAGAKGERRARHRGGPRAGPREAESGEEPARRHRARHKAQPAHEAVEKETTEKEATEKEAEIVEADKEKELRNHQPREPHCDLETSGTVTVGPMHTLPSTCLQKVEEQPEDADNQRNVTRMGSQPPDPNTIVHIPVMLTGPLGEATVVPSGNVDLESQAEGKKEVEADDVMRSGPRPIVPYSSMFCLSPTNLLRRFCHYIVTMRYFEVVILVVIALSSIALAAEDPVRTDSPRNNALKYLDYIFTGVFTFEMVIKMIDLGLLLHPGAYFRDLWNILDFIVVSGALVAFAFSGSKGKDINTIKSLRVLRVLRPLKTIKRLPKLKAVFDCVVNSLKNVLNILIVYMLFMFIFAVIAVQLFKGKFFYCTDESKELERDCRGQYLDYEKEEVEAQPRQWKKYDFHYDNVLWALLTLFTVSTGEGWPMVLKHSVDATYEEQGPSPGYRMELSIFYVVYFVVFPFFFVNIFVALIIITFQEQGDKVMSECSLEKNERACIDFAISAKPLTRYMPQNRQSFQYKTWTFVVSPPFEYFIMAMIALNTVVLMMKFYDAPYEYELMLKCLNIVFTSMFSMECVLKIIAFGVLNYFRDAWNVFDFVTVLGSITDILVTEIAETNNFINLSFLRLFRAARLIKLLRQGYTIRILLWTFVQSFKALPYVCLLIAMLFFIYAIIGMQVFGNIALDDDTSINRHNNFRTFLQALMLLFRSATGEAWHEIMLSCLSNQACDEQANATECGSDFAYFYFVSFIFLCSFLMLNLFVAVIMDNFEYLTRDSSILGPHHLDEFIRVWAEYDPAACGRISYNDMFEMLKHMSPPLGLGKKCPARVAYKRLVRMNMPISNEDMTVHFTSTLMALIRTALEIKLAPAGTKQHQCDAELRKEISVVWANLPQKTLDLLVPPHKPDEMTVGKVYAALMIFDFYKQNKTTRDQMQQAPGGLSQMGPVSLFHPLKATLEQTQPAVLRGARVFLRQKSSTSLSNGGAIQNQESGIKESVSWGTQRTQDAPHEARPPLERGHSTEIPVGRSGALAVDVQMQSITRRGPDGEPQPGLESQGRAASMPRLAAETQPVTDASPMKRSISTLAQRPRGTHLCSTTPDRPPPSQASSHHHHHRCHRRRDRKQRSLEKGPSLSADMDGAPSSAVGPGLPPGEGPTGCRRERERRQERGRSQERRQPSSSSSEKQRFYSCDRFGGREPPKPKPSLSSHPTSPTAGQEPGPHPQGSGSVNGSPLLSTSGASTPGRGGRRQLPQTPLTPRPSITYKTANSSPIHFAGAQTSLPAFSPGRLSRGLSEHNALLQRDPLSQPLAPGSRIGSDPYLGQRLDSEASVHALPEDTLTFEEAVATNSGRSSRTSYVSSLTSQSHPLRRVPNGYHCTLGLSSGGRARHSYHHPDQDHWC

CC(C)(C)OC(=O)N1CSC[C@H]1C(=O)N[C@@H](CSCC1CCCCC1)C(=O)NC1CCN(Cc2ccccc2)CC1 [compound (I), (2R)—N-(1-benzylpiperidin-4-yl)-3-cyclohexylmethylthio-2-[(4R)-3-tert-butoxycarbonylthiazolidin-4-ylcarbonylamino]propaneamide]
N-type calcium channel inhibiting activity (N-type calcium channel): N-type calcium channel inhibiting activity
bioavailability [1]: ~0.2%
solubility (Solubility in water): ~1.25 µg/mL (≈ 2.07 µM)
metabolic enzyme (CYP3A4): metabolized by CYP3A4
